Laboratory results: patent publication US20090030066A1, “SMALL MOLECULES FOR THE PROTECTION OF PANCREATIC CELLS” (priority 2007, published 2009)

Assays:
[1] = system: human bone marrow-derived mesenchymal stem cells (MSC); assay: Expansion (cell count) of human bone marrow-derived mesenchymal stem cells; assay type: cell-based; conditions: for Cell number per culture: Table 4 experiment; for Cell number/culture: Table 5 experiment
Description: Bone marrow aspirates were taken from normal adult donors signed after informed consent according to a protocol approved by the appropriate Ethics Committee. For the preparation of bone marrow mesenchymal stem cells, essentially a widely used technique was used as described earlier by others [Pittenger, M. F., Mackay, A. M., Beck, S. C., Jaiswal, R. K., Douglas, R., Mosca, J. D., Moorman, M. A., Simonetti, D. W., Craig, S, and Marshak, D. R., Multilineage potential of adult human mesenchymal stem cells (1999) Science 284, 143-147]. Briefly, nucleated cells were isolated with a pre-prepared commercial density gradient (Lymphoprep, Nycomed, Pharma, Oslo, Norway) and resuspended in Dulbecco's modified Eagle's medium (DMEM) (GIBCO, Grand Island, N.Y.) supplemented with 10% fetal calf serum (FCS), 50 U/ml of penicillin, and 50 μg/ml of streptomycin (GIBCO). All nucleated cells were plated in 25-cm^2 flasks (BD Falcon, Bedford, Mass.) at 37° C. in humidified atmosphere containing 5% CO2. After 24 hours, nonadherent cells were removed and cryopreserved in liquid nitrogen until use. The remaining adherent cells were thoroughly washed with Hanks balanced salt solution (HBSS) (GIBCO). Fresh complete culture medium was added and replaced every 3 or 4 days (twice a week). When cells grew to about 80% confluence, they were suspended and harvested by incubating with a ready-made solution containing 0.25% trypsin and 1 mM EDTA (Sigma-Aldrich, St. Louis, Mo.) for 5 minutes at 37° C.; this cell suspension is designated as passage 1. These cells were further expanded with 1:3-1:5 splitting in 175-cm^2 flasks (BD Falcon).
The total numbers of nucleated and viable cells were determined with a hemocytometer, using Turck's solution and trypan blue stain, respectively. The morphology of MSC was examined every week under an inverted microscope (Olympos CK2, Tokyo, Japan) to verify that cells retained their structural characteristics. In the two experiments described below, MSCs were split into 24-well “F-bottom” plates at passage 5.
In both experiments, about 80% confluent cells were split into 24-well “F-bottom” plates. Then after 24 hours in 10% serum containing medium (at about 30-35% confluence), the medium was replaced for either serum-free medium or 2% or 10 fetal calf serum containing medium. […] In both experiments, the data are the mean ±S.D. of 5 incubations.

[2] = system: AR42J rat pancreatic tumor cell line; assay: MTT proliferation of AR42J pancreatic tumor cells; assay type: cell-based; conditions: 96 h
Description: In the Examples below, an MTT assay was used to determine the relative number of viable cells after treatments. This calorimetric assay is based on the ability of living cells, but not dead cells, to reduce 3-(4,5-dimethyl thiazol-2-yl)-2,5-diphenyltetrazolium bromide. [Carmichael, J, De Graff, W. G., Gazdar, A. F., Minna, J. D. and Mitchell, J. B. (1987) Evaluation of tetrazolium-based semiautomated calorimetric assay: Assessment of chemosensitivity testing. Cancer Res. 47, 936-942], which is hereby incorporated by reference. For this assay, cells were plated in 96-well plates, and the MTT assay was performed as described in the above article both in untreated and treated cell cultures. The MTT assay also was performed at the time when the treatment was started to allow for assessment of the proliferation and survival rates in the control and treated cell cultures. In the MTT assay, higher values mean proportionally higher numbers of viable cells.
The AR42J rat pancreatic tumor cell line, purchased from ATTC (catalog number: CRL-1492), was propagated in modified Ham's medium containing 20% fetal bovine serum. These cells, derived from a transplantable tumor of the exocrine pancreas, contain significant amounts of amylase and other exocrine enzymes and they produce tumors in athymic mice.
For the experiment, cells were split in 96-well plates at 15,000 cells per well. After 24 hours, the medium was changed for fresh medium (0 hour) and various concentrations of CCompound1 and CCompound3 were added and incubations continued for 96 hours. The MTT assay was used to determine the relative number of viable cells. From the data shown in TABLE 13, in the 2-25 μM concentration range CC compounds had only inhibitory effects on the proliferation of pancreatic cancer cells.

Question: `Cc1c(OCC(O)C[N+](C)(C)C)cc2c(=O)c3ccccc3sc2c1C.[Cl-]` (centres unmarked) [CCcompound1, [3-(3,4-Dimethyl-9-oxo-9H-thioxanthen-2-yloxy)-2-hydroxypropyl]trimethyl-ammonium chloride] was tested. Which “effect on MSC proliferation” value ([1]; 10 μM, 10% serum) did it give?
Answer: enhanced cell proliferation

Question: What about the “effect on expansion of stem cells” value ([1]; 5-10 μM, absence and presence of 2% serum, between days 3 and 6) of the same compound?
Answer: significantly increased the expansion of stem cells

Question: And the “effect on MSC cell numbers” value ([1]; 5-10 μM, absence or presence of 2% serum, first 3 days)?
Answer: slightly enhance cell numbers

Question: What about the “Cell number per culture” value ([1]; 0% serum, day 2, 5 μM) of the same compound?
Answer: 6.4 ± 2.0 ×10^−3

Question: And the “Cell number per culture” value ([1]; 0% serum, day 2, 10 μM)?
Answer: 5.9 ± 1.9 ×10^−3

Question: What about the “Cell number per culture” value ([1]; 0% serum, day 2, 50 μM) of the same compound?
Answer: 4.0 ± 1.6 ×10^−3

Question: What about the “Cell number per culture” value ([1]; 0% serum, day 4, 5 μM) of the same compound?
Answer: 8.1 ± 2.1 ×10^−3

Question: What about the “Cell number per culture” value ([1]; 0% serum, day 4, 10 μM) of the same compound?
Answer: 6.8 ± 2.4 ×10^−3

Question: And the “Cell number per culture” value ([1]; 0% serum, day 4, 50 μM)?
Answer: 3.4 ± 1.1 ×10^−3

Question: And the “Cell number per culture” value ([1]; 0% serum, day 6, 5 μM)?
Answer: 12.5 ± 1.6 ×10^−3

Question: What about the “Cell number per culture” value ([1]; 0% serum, day 6, 10 μM) of the same compound?
Answer: 10.2 ± 1.4 ×10^−3

Question: What about the “Cell number per culture” value ([1]; 0% serum, day 6, 50 μM) of the same compound?
Answer: 3.8 ± 1.2 ×10^−3

Question: What about the “Cell number per culture” value ([1]; 2% serum, day 2, 5 μM) of the same compound?
Answer: 7.1 ± 2.7 ×10^−3

Question: What about the “Cell number per culture” value ([1]; 2% serum, day 2, 10 μM) of the same compound?
Answer: 6.3 ± 1.6 ×10^−3

Question: And the “Cell number per culture” value ([1]; 2% serum, day 2, 50 μM)?
Answer: 3.9 ± 1.1 ×10^−3

Question: And the “Cell number per culture” value ([1]; 2% serum, day 4, 5 μM)?
Answer: 11.6 ± 2.4 ×10^−3

Question: What about the “Cell number per culture” value ([1]; 2% serum, day 4, 10 μM) of the same compound?
Answer: 9.2 ± 2.3 ×10^−3

Question: And the “Cell number per culture” value ([1]; 2% serum, day 4, 50 μM)?
Answer: 5.2 ± 1.6 ×10^−3

Question: And the “Cell number per culture” value ([1]; 2% serum, day 6, 5 μM)?
Answer: 20.8 ± 2.5 ×10^−3

Question: What about the “Cell number per culture” value ([1]; 2% serum, day 6, 10 μM) of the same compound?
Answer: 17.4 ± 2.0 ×10^−3

Question: And the “Cell number per culture” value ([1]; 2% serum, day 6, 50 μM)?
Answer: 7.0 ± 3.3 ×10^−3

Question: What about the Cell number/culture ([1]; 2.0 μM, 0% serum, Day 3) of the same compound?
Answer: 4.7 ± 3.5 ×10^−3

Question: What about the Cell number/culture ([1]; 2.0 μM, 0% serum, Day 6) of the same compound?
Answer: 6.2 ± 1.7 ×10^−3

Question: What about the Cell number/culture ([1]; 2.0 μM, 2% serum, Day 3) of the same compound?
Answer: 4.9 ± 2.6 ×10^−3

Question: And the Cell number/culture ([1]; 2.0 μM, 2% serum, Day 6)?
Answer: 16.4 ± 2.5 ×10^−3

Question: And the Cell number/culture ([1]; 2.0 μM, 10% serum, Day 3)?
Answer: 5.9 ± 1.7 ×10^−3

Question: And the Cell number/culture ([1]; 2.0 μM, 10% serum, Day 6)?
Answer: 33.3 ± 5.2 ×10^−3

Question: And the Cell number/culture ([1]; 5.0 μM, 0% serum, Day 3)?
Answer: 5.9 ± 2.1 ×10^−3

Question: And the Cell number/culture ([1]; 5.0 μM, 0% serum, Day 6)?
Answer: 10.3 ± 2.5 ×10^−3

Question: What about the Cell number/culture ([1]; 5.0 μM, 2% serum, Day 3) of the same compound?
Answer: 7.2 ± 1.3 ×10^−3

Question: And the Cell number/culture ([1]; 5.0 μM, 2% serum, Day 6)?
Answer: 18.3 ± 4.8 ×10^−3

Question: And the Cell number/culture ([1]; 5.0 μM, 10% serum, Day 3)?
Answer: 6.2 ± 2.6 ×10^−3

Question: And the Cell number/culture ([1]; 5.0 μM, 10% serum, Day 6)?
Answer: 36.4 ± 5.2 ×10^−3

Question: And the Cell number/culture ([1]; 10.0 μM, 0% serum, Day 3)?
Answer: 6.3 ± 2.2 ×10^−3

Question: And the Cell number/culture ([1]; 10.0 μM, 0% serum, Day 6)?
Answer: 13.3 ± 3.2 ×10^−3

Question: And the Cell number/culture ([1]; 10.0 μM, 2% serum, Day 3)?
Answer: 5.6 ± 1.6 ×10^−3

Question: What about the Cell number/culture ([1]; 10.0 μM, 2% serum, Day 6) of the same compound?
Answer: 19.0 ± 3.8 ×10^−3

Question: What about the Cell number/culture ([1]; 10.0 μM, 10% serum, Day 3) of the same compound?
Answer: 5.1 ± 1.7 ×10^−3

Question: What about the Cell number/culture ([1]; 10.0 μM, 10% serum, Day 6) of the same compound?
Answer: 39.1 ± 4.1 ×10^−3

Question: And the Cell number/culture ([1]; 25.0 μM, 0% serum, Day 3)?
Answer: 4.4 ± 1.7 ×10^−3

Question: And the Cell number/culture ([1]; 25.0 μM, 0% serum, Day 6)?
Answer: 6.4 ± 3.1 ×10^−3

Question: And the Cell number/culture ([1]; 25.0 μM, 2% serum, Day 3)?
Answer: 4.7 ± 2.6 ×10^−3

Question: And the Cell number/culture ([1]; 25.0 μM, 2% serum, Day 6)?
Answer: 12.9 ± 4.9 ×10^−3

Question: What about the Cell number/culture ([1]; 25.0 μM, 10% serum, Day 3) of the same compound?
Answer: 5.2 ± 2.1 ×10^−3

Question: What about the Cell number/culture ([1]; 25.0 μM, 10% serum, Day 6) of the same compound?
Answer: 33.5 ± 5.3 ×10^−3

Question: What about the Cell number/culture ([1]; 100.0 μM, 0% serum, Day 3) of the same compound?
Answer: 1.1 ± 1.6 ×10^−3

Question: What about the Cell number/culture ([1]; 100.0 μM, 0% serum, Day 6) of the same compound?
Answer: 1.3 ± 1.1 ×10^−3

Question: And the Cell number/culture ([1]; 100.0 μM, 2% serum, Day 3)?
Answer: 1.5 ± 1.1 ×10^−3

Question: What about the Cell number/culture ([1]; 100.0 μM, 2% serum, Day 6) of the same compound?
Answer: 5.8 ± 3.2 ×10^−3

Question: What about the Cell number/culture ([1]; 100.0 μM, 10% serum, Day 3) of the same compound?
Answer: 4.4 ± 2.5 ×10^−3

Question: What about the Cell number/culture ([1]; 100.0 μM, 10% serum, Day 6) of the same compound?
Answer: 14.8 ± 3.1 ×10^−3

Question: And the “decrease of the effects on cell survival and proliferation when added late” value ([1]; compound added 6 hours after medium change, data not shown)?
Answer: 50-70%

Question: And the “A540 (MTT, relative number of viable cells)” value ([2]; 2 μM)?
Answer: 1.092 ± 0.083

Question: What about the “A540 (MTT, relative number of viable cells)” value ([2]; 5 μM) of the same compound?
Answer: 0.954 ± 0.080

Question: And the “A540 (MTT, relative number of viable cells)” value ([2]; 10 μM)?
Answer: 0.882 ± 0.062

Question: What about the “A540 (MTT, relative number of viable cells)” value ([2]; 25 μM) of the same compound?
Answer: 0.781 ± 0.090
